In patent US4194006A, “Therapeutic application of acetyl-d,l-carnitine and other acyl derivatives of d,l-carnitine” (priority 1977, dated 1980):
Read-outs that look alike come from different tables or passages of the source.

Legend:
isolated rabbit hearts [1] = experiment: cardiokinetic effect on isolated heart (Langendorff): contractile force after anoxia, positive inotropic effect; conditions: 10 minutes from interruption of anoxic period
In short: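 Rabbit hearts were perfused Langendorff-style with oxygenated Ringer at 38.2 °C. Anoxia was applied until contractile force dropped by 80%, then the hearts were reoxygenated with or without compound. Contractile force was expressed as a percentage 10 min after the anoxic period ended.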

isolated rabbit hearts [2] = experiment: coronary vasodilator effect: coronary flow, isolated heart (Langendorff)
In short: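 Langendorff-perfused isolated rabbit hearts in oxygenated Ringer at 38.2° C; anoxia imposed until contractile force fell by 80%, then reoxygenated with or without test compound. Coronary flow, isometric contraction and ECG recorded by polygraph.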

isolated rat atrium = experiment: antiarrhythmic effect, isolated rat atrium method of M. Libonati and G. Segre; conditions: Rattus norvegicus; for inhibition at 0.1 µg/mL / activation at 0.1 µg/mL: 1·10^-4 g/lt; for inhibition at 0.1 µg/mL / inhibition at 0.01 µg/mL / inhibition at 0.001 µg/mL: decrease; for activation at 0.1 µg/mL / activation at 0.01 µg/mL / activation at 0.001 µg/mL: increase; for inhibition at 0.01 µg/mL / activation at 0.01 µg/mL: 1·10^-5 g/lt; for inhibition at 0.001 µg/mL / activation at 0.001 µg/mL: 1·10^-6 g/lt
female rats = experiment: antifatigue effect: rota-rod; type: in vivo, rat; conditions: Rattus norvegicus, ip, 0.25 h, read-out: percentage of animals staying on the rota-rod more than 180 seconds; for responders at 300 mg/kg: 300 mg/kg i.p.; for responders at 400 mg/kg: 400 mg/kg i.p.; for responders at 600 mg/kg: 600 mg/kg i.p.
In short: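 Female rats dosed intraperitoneally in saline, with controls given saline alone. Every 15 min after treatment animals were placed on a 6 cm rod rotating at 16 r.p.m. Value is the percentage of animals staying on the rod for more than 180 s, per session.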

[3] = read-out: Mean percent variation versus controls: excitability (-%)
[4] = read-out: Mean percent variation versus controls: frequency max (-%)
[5] = read-out: Mean percent variation versus controls: refractory period (+%)
[6] = read-out: Mean percent variation versus controls: rheobase (+%)
[7] = session 6 (every 15 minutes), * p < 0.05

For `CCCCCCCCCC(=O)OC(CC(=O)[O-])C[N+](C)(C)C` (racemic) [decanoyl-d,l-carnitine], the “Contractile force, Mean ± S.E.” value (isolated rabbit hearts [1]; 1·10^-5 g/lt) was 36.3 ± 6.53%, the “Contractile force, Mean ± S.E.” value (isolated rabbit hearts [1]; 1·10^-6 g/lt) was 26.9 ± 5.02% and the “Contractile force, Mean ± S.E.” value (isolated rabbit hearts [1]; 5·10^-6 g/lt) was 29.1 ± 3.12%. The “Coronary flow, Mean ± S.E.” value (isolated rabbit hearts [2]; 1·10^-5 g/lt) was 83.21 ± 5.70%, the “Coronary flow, Mean ± S.E.” value (isolated rabbit hearts [2]; 1·10^-6 g/lt) was 76.30 ± 9.42% and the “Coronary flow, Mean ± S.E.” value (isolated rabbit hearts [2]; 5·10^-6 g/lt) was 72.60 ± 12.4%. It also gave an inhibition at 0.1 µg/mL (isolated rat atrium; [3]) of 25.2%, an inhibition at 0.1 µg/mL (isolated rat atrium; [4]) of 24.8% and an activation at 0.1 µg/mL (isolated rat atrium; [5]) of 21.6%. The activation at 0.1 µg/mL (isolated rat atrium; [6]) was 21.2%, the inhibition at 0.01 µg/mL (isolated rat atrium; [3]) was 17.2% and the inhibition at 0.01 µg/mL (isolated rat atrium; [4]) was 12%. It also gave an activation at 0.01 µg/mL (isolated rat atrium; [5]) of 10.3%, an activation at 0.01 µg/mL (isolated rat atrium; [6]) of 9.54% and an inhibition at 0.001 µg/mL (isolated rat atrium; [3]) of 0%. The inhibition at 0.001 µg/mL (isolated rat atrium; [4]) was 8.66%, the activation at 0.001 µg/mL (isolated rat atrium; [5]) was 9.14% and the activation at 0.001 µg/mL (isolated rat atrium; [6]) was 3.12%. For the same compound, the responders at 300 mg/kg (female rats; session 1 (every 15 minutes)) was 0%, the responders at 300 mg/kg (female rats; session 2 (every 15 minutes)) was 0% and the responders at 300 mg/kg (female rats; session 3 (every 15 minutes)) was 0%. It also gave a responders at 300 mg/kg (female rats; session 4 (every 15 minutes)) of 10%, a responders at 300 mg/kg (female rats; session 5 (every 15 minutes)) of 10% and a responders at 300 mg/kg (female rats; session 6 (every 15 minutes)) of 10%. It also gave a responders at 400 mg/kg (female rats; session 1 (every 15 minutes)) of 0%, a responders at 400 mg/kg (female rats; session 2 (every 15 minutes)) of 0% and a responders at 400 mg/kg (female rats; session 3 (every 15 minutes)) of 0%. It also gave a responders at 400 mg/kg (female rats; session 4 (every 15 minutes)) of 10%, a responders at 400 mg/kg (female rats; session 5 (every 15 minutes)) of 10% and a responders at 400 mg/kg (female rats; [7]) of 10%. The responders at 600 mg/kg (female rats; session 1 (every 15 minutes)) was 0%, the responders at 600 mg/kg (female rats; session 2 (every 15 minutes)) was 0% and the responders at 600 mg/kg (female rats; session 3 (every 15 minutes)) was 0%. The responders at 600 mg/kg (female rats; session 4 (every 15 minutes)) was 10%, the responders at 600 mg/kg (female rats; session 5 (every 15 minutes)) was 10% and the responders at 600 mg/kg (female rats; [7]) was 20%.
For `CCCC(=O)OC(CC(=O)[O-])C[N+](C)(C)C` (racemic) [butyryl-d,l-carnitine], the “Contractile force, Mean ± S.E.” value (isolated rabbit hearts [1]; 1·10^-5 g/lt) was 51.5 ± 5.02%, the “Contractile force, Mean ± S.E.” value (isolated rabbit hearts [1]; 1·10^-6 g/lt) was 30.6 ± 4.51% and the “Contractile force, Mean ± S.E.” value (isolated rabbit hearts [1]; 5·10^-6 g/lt) was 35.6 ± 6.19%. The “Coronary flow, Mean ± S.E.” value (isolated rabbit hearts [2]; 1·10^-5 g/lt) was 90.12 ± 8.18%, the “Coronary flow, Mean ± S.E.” value (isolated rabbit hearts [2]; 1·10^-6 g/lt) was 74.01 ± 6.19% and the inhibition at 0.1 µg/mL (isolated rat atrium; [3]) was 63.7%. For the same compound, the inhibition at 0.1 µg/mL (isolated rat atrium; [4]) was 62.3%, the activation at 0.1 µg/mL (isolated rat atrium; [5]) was 38% and the activation at 0.1 µg/mL (isolated rat atrium; [6]) was 55%. It also gave an inhibition at 0.01 µg/mL (isolated rat atrium; [3]) of 31.9%, an inhibition at 0.01 µg/mL (isolated rat atrium; [4]) of 30.4% and an activation at 0.01 µg/mL (isolated rat atrium; [5]) of 25.9%. It also gave an activation at 0.01 µg/mL (isolated rat atrium; [6]) of 40.8%, an inhibition at 0.001 µg/mL (isolated rat atrium; [3]) of 12.9% and an inhibition at 0.001 µg/mL (isolated rat atrium; [4]) of 24.8%. For the same compound, the activation at 0.001 µg/mL (isolated rat atrium; [5]) was 18.2%, the activation at 0.001 µg/mL (isolated rat atrium; [6]) was 28.3% and the responders at 300 mg/kg (female rats; session 1 (every 15 minutes)) was 0%. The responders at 300 mg/kg (female rats; session 2 (every 15 minutes)) was 0%, the responders at 300 mg/kg (female rats; session 3 (every 15 minutes)) was 0% and the responders at 300 mg/kg (female rats; session 4 (every 15 minutes)) was 0%. For the same compound, the responders at 300 mg/kg (female rats; session 5 (every 15 minutes)) was 0%, the responders at 300 mg/kg (female rats; session 6 (every 15 minutes)) was 10% and the responders at 400 mg/kg (female rats; session 1 (every 15 minutes)) was 0%. It also gave a responders at 400 mg/kg (female rats; session 2 (every 15 minutes)) of 0%, a responders at 400 mg/kg (female rats; session 3 (every 15 minutes)) of 0% and a responders at 400 mg/kg (female rats; session 4 (every 15 minutes)) of 10%. For the same compound, the responders at 400 mg/kg (female rats; session 5 (every 15 minutes)) was 10%, the responders at 400 mg/kg (female rats; [7]) was 20% and the responders at 600 mg/kg (female rats; session 1 (every 15 minutes)) was 0%. It also gave a responders at 600 mg/kg (female rats; session 2 (every 15 minutes)) of 0%, a responders at 600 mg/kg (female rats; session 3 (every 15 minutes)) of 10% and a responders at 600 mg/kg (female rats; session 4 (every 15 minutes)) of 20%. It also gave a responders at 600 mg/kg (female rats; session 5 (every 15 minutes)) of 20% and a responders at 600 mg/kg (female rats; [7]) of 40%.
For `CCCCCC(=O)OC(CC(=O)[O-])C[N+](C)(C)C` (racemic) [hexanoyl-d,l-carnitine], the “Contractile force, Mean ± S.E.” value (isolated rabbit hearts [1]; 1·10^-5 g/lt) was 38.0 ± 4.80%, the “Contractile force, Mean ± S.E.” value (isolated rabbit hearts [1]; 1·10^-6 g/lt) was 24.2 ± 3.88% and the “Contractile force, Mean ± S.E.” value (isolated rabbit hearts [1]; 5·10^-6 g/lt) was 28.8 ± 3.16%. The “Coronary flow, Mean ± S.E.” value (isolated rabbit hearts [2]; 1·10^-5 g/lt) was 84.08 ± 5.14%, the “Coronary flow, Mean ± S.E.” value (isolated rabbit hearts [2]; 1·10^-6 g/lt) was 76.25 ± 4.75% and the “Coronary flow, Mean ± S.E.” value (isolated rabbit hearts [2]; 5·10^-6 g/lt) was 75.28 ± 8.36%. For the same compound, the inhibition at 0.1 µg/mL (isolated rat atrium; [3]) was 26.3%, the inhibition at 0.1 µg/mL (isolated rat atrium; [4]) was 25.1% and the activation at 0.1 µg/mL (isolated rat atrium; [5]) was 21.7%. The activation at 0.1 µg/mL (isolated rat atrium; [6]) was 21.7%, the inhibition at 0.01 µg/mL (isolated rat atrium; [3]) was 18.2% and the inhibition at 0.01 µg/mL (isolated rat atrium; [4]) was 12.3%. It also gave an activation at 0.01 µg/mL (isolated rat atrium; [5]) of 12.7%, an activation at 0.01 µg/mL (isolated rat atrium; [6]) of 10.1% and an inhibition at 0.001 µg/mL (isolated rat atrium; [3]) of 12.4%. It also gave an inhibition at 0.001 µg/mL (isolated rat atrium; [4]) of 8.71%, an activation at 0.001 µg/mL (isolated rat atrium; [5]) of 9.04% and an activation at 0.001 µg/mL (isolated rat atrium; [6]) of 6.2%. For the same compound, the responders at 300 mg/kg (female rats; session 1 (every 15 minutes)) was 0%, the responders at 300 mg/kg (female rats; session 2 (every 15 minutes)) was 0% and the responders at 300 mg/kg (female rats; session 3 (every 15 minutes)) was 0%. It also gave a responders at 300 mg/kg (female rats; session 4 (every 15 minutes)) of 0%, a responders at 300 mg/kg (female rats; session 5 (every 15 minutes)) of 10% and a responders at 300 mg/kg (female rats; session 6 (every 15 minutes)) of 10%. It also gave a responders at 400 mg/kg (female rats; session 1 (every 15 minutes)) of 0%, a responders at 400 mg/kg (female rats; session 2 (every 15 minutes)) of 0% and a responders at 400 mg/kg (female rats; session 3 (every 15 minutes)) of 0%. The responders at 400 mg/kg (female rats; session 4 (every 15 minutes)) was 0%, the responders at 400 mg/kg (female rats; session 5 (every 15 minutes)) was 10% and the responders at 400 mg/kg (female rats; [7]) was 10%. For the same compound, the responders at 600 mg/kg (female rats; session 1 (every 15 minutes)) was 0%, the responders at 600 mg/kg (female rats; session 2 (every 15 minutes)) was 0% and the responders at 600 mg/kg (female rats; session 3 (every 15 minutes)) was 10%. It also gave a responders at 600 mg/kg (female rats; session 4 (every 15 minutes)) of 10%, a responders at 600 mg/kg (female rats; session 5 (every 15 minutes)) of 20% and a responders at 600 mg/kg (female rats; [7]) of 30%.
